Test results as given in ChEMBL document CHEMBL1201862, “PubChem BioAssay data set” (2004).
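Dose response: 5 concentrations. Exposure: 48 h. Format: 96-well plates. Endpoint: linear interpolation; highest concentration if not reached. At the GI50, growth is halved.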 Active and inactive are the calls of the source. Cut-off read from the data, not from the text of the source: active = GI50 up to about 1.1 µM and inactive = higher.

Tests used:
Assay in all cases: NCI anticancer screen, dose series, 48 h
Hs-578T = system: Hs-578T
SR = system: SR
MDA-N = system: MDA-N
ACHN = system: ACHN
SK-MEL-28 = system: SK-MEL-28
SNB-75 = system: SNB-75
SW-620 = system: SW-620
HOP-92 = system: HOP-92
IGROV-1 = system: IGROV-1
DU-145 = system: DU-145
OVCAR-3 = system: OVCAR-3
A498 = system: A498
HL-60 = system: HL-60
RPMI-8226 = system: RPMI-8226
OVCAR-8 = system: OVCAR-8
SK-MEL-2 = system: SK-MEL-2
OVCAR-5 = system: OVCAR-5
U-251 = system: U-251
LOX IMVI = system: LOX IMVI
PC-3 = system: PC-3

Row | Structure (SMILES) | GI50 (Hs-578T) | GI50 (SR) | GI50 (MDA-N) | GI50 (ACHN) | GI50 (SK-MEL-28) | GI50 (SNB-75) | GI50 (SW-620) | GI50 (HOP-92) | GI50 (IGROV-1) | GI50 (DU-145) | GI50 (OVCAR-3) | GI50 (A498) | GI50 (HL-60) | GI50 (RPMI-8226) | GI50 (OVCAR-8) | GI50 (SK-MEL-2) | GI50 (OVCAR-5) | GI50 (U-251) | GI50 (LOX IMVI) | GI50 (PC-3)
1 | CCN(CC)Cc1ccc2cccnc2c1O | 25.4 µM (inactive) | 0.995 µM (active) | 10.6 µM (inactive) | 2.33 µM (inactive) | 7.35 µM (inactive) | 0.577 µM (active) | 3.3 µM (inactive) | 11.6 µM (inactive) | 2.77 µM (inactive) | 10.8 µM (inactive) | 2.88 µM (inactive) | 16.3 µM (inactive) | 0.43 µM (active) | 3.1 µM (inactive) | 2.03 µM (inactive) | 20.1 µM (inactive) | 10.3 µM (inactive) | 4.47 µM (inactive) | 3.84 µM (inactive) | 6.05 µM (inactive)
2 | Cn1ccc(C(=O)NCCN(CCNC(=O)c2ccn(C)c(=O)c2O)CCNC(=O)c2ccn(C)c(=O)c2O)c(O)c1=O | > 100 µM (inactive) | > 100 µM (inactive) | > 100 µM (inactive) | 74.6 µM (inactive) | > 100 µM (inactive) | > 100 µM (inactive) | > 100 µM (inactive) | > 100 µM (inactive) | > 100 µM (inactive) | > 100 µM (inactive) | > 100 µM (inactive) | > 100 µM (inactive) | > 100 µM (inactive) | > 100 µM (inactive) | > 100 µM (inactive) | > 100 µM (inactive) | 29.9 µM (inactive) | > 100 µM (inactive) | – | > 100 µM (inactive)
3 | CCN1CCC(O)(/C=C/c2ccccc2C)C(C(=O)/C=C/c2ccccc2C)C1 (configuration not stated) | 3.76 µM (inactive) | 2.72 µM (inactive) | 2.67 µM (inactive) | – | 2.39 µM (inactive) | 4.92 µM (inactive) | 2.74 µM (inactive) | 1.34 µM (inactive) | 3.62 µM (inactive) | 1.79 µM (inactive) | 2.25 µM (inactive) | 1.91 µM (inactive) | 2.01 µM (inactive) | – | 2.71 µM (inactive) | 2.33 µM (inactive) | 1.97 µM (inactive) | 2.34 µM (inactive) | 1.68 µM (inactive) | 1.93 µM (inactive)
4 | Nc1ncnc2c1ncn2C=C=CCO | > 100 µM (inactive) | > 100 µM (inactive) | > 100 µM (inactive) | – | > 100 µM (inactive) | > 100 µM (inactive) | > 100 µM (inactive) | > 100 µM (inactive) | – | > 100 µM (inactive) | > 100 µM (inactive) | > 100 µM (inactive) | – | > 100 µM (inactive) | > 100 µM (inactive) | > 100 µM (inactive) | > 100 µM (inactive) | > 100 µM (inactive) | > 100 µM (inactive) | > 100 µM (inactive)
5 | C(/C=N/c1ccccc1)=C(/Nc1ccccc1)C12CC3CC(CC(C3)C1)C2 | 37.5 µM (inactive) | 11 µM (inactive) | 13.8 µM (inactive) | 13.6 µM (inactive) | 20.5 µM (inactive) | 20.9 µM (inactive) | 14 µM (inactive) | 25.2 µM (inactive) | 17.6 µM (inactive) | 19.3 µM (inactive) | 6.85 µM (inactive) | 23.8 µM (inactive) | 12.1 µM (inactive) | – | 20.7 µM (inactive) | – | 15.2 µM (inactive) | 15 µM (inactive) | 12.9 µM (inactive) | 14.9 µM (inactive)
6 | COc1cc(C2c3cc4c(cc3OC(N3CCCCC3)C2C)OCO4)cc(OC)c1OC (configuration not stated) | 2.09 µM (inactive) | 3.27 µM (inactive) | 0.723 µM (active) | 6.79 µM (inactive) | 10.5 µM (inactive) | 4.47 µM (inactive) | 3.2 µM (inactive) | 10.4 µM (inactive) | 4.62 µM (inactive) | 3.49 µM (inactive) | 1.9 µM (inactive) | 3.38 µM (inactive) | 2.33 µM (inactive) | 4.18 µM (inactive) | 5.11 µM (inactive) | 3.45 µM (inactive) | 12.7 µM (inactive) | 3.2 µM (inactive) | 4.85 µM (inactive) | 3.5 µM (inactive)
